Results as given in patent US6391878B2, “Guanidinyl heterocycle compounds useful as alpha-2 adrenoceptor agonists” (The Procter & Gamble Company, priority 1996, dated 2002).

Tests used:
[1] = test system: patient with nasal congestion and runny nose due to allergic rhinitis; assay: Oral liquid given to a patient with nasal congestion and runny nose due to allergic rhinitis; assay type: in vivo, human; settings: Example H oral liquid, 15 mg per 15 mL dose, with chlorpheniramine maleate 4 mg, one dose swallowed
Method: One 15 mL dose of the liquid composition is swallowed by a patient with nasal congestion and runny nose due to allergic rhinitis.

[2] = test system: patient with nasal congestion; assay: Composition given to a patient with nasal congestion; assay type: in vivo, human
Method: One tablet is swallowed by a patient with nasal congestion.
One tablet is chewed and swallowed by a patient with nasal congestion.
One tablet is placed under the tongue of a patient with nasal congestion and allowed to dissolve.
One-tenth of a mL of the composition is sprayed from a pump actuator into each nostril of a patient with nasal congestion.
One-fifth of a mL of the composition is applied as drops from a dropper into each nostril of a patient with riasal congestion.
One 15 mL dose of the alcohol-free liquid medication is swallowed by a patient with nasal congestion.

patient with glaucoma = assay: Topical ophthalmic composition given to a patient with glaucoma, intraocular pressure; assay type: in vivo, human; settings: Example G topical ophthalmic composition 0.10 % w/v, one-tenth of a mL into each eye
Method: One-tenth of a mL of the composition is administered directly into each eye of a patient with glaucoma.

patient with asthma = assay: Inhalation aerosol given to a patient with asthma; assay type: in vivo, human; settings: Example F inhalation aerosol 5.0 % w/v, two puffs from a metered-dose inhaler
Text: Two-puffs of the aerosol composition is inhaled from a metered-dose inhaler by a patient with asthma.

[3] = test system: human subject suffering from septic or cardiogenic shock; assay: Intravenous solution given to a human subject suffering from septic or cardiogenic shock; assay type: in vivo; settings: Example T parenteral solution 10 mg/ml carrier, approximately 2.0 ml intravenously
Method: The above ingredients are mixed, forming a solution. Approximately 2.0 ml of the solution is administered, intravenously, to a human subject suffering from septic or cardiogenic shock. The symptoms subside.

patient with migraine = assay: Oral tablet given to a patient with migraine; assay type: in vivo, human; settings: Example K oral tablet, 4 mg per tablet, one tablet swallowed
Text: One tablet is swallowed by a patient with migraine.

Cc1c(NC(=N)N)ccc2c1ncn2C [Subject Compound 4, (1,4-Dimethylbenzimidazol-5-yl)quanidine]
congestion and runny nose [1]: effectively reduced | nasal congestion ([2]; Example A oral tablet, 20.0 mg per tablet, one tablet swallowed): substantially diminished

Cc1nc2c(C)c(NC(=N)N)ccc2[nH]1 [Subject Compound 3, (2,4-Dimethylbenzimidazol-5-yl)quanidine]
nasal congestion ([2]; Example D intranasal solution 0.20 % w/v, one-tenth of a mL sprayed into each nostril): substantially diminished

N=C(N)Nc1ccc2nc[nH]c2c1Br [Subject Compound 5, (4-Bromobenzimidazol-5-yl)guanidine]
intraocular pressure (patient with glaucoma): substantially reduced | nasal congestion ([2]; Example C sublingual tablet, 2.00 mg per tablet, dissolved under the tongue): rapidly and substantially diminished

Cc1cc(NC(=N)N)c(C)c2[nH]cnc12 [Subject Compound 2, (4,7-Dimethylbenzimidazol-5-yl)guanidine]
nasal congestion ([2]; Example J alcohol-free oral liquid, 30 mg per 15 mL dose, one dose swallowed): substantially diminished | asthmatic condition (patient with asthma): effectively relieved

Cc1c(NC(=N)N)ccc2nc[nH]c12 [Subject Compound 1, (4-Methylbenzimidazol-5-yl)guanidine]
symptoms of septic or cardiogenic shock [3]: subside | pain and aura of migraine (patient with migraine): substantially diminished | nasal congestion ([2]; Example B chewable tablet, 15.0 mg per tablet, one tablet chewed and swallowed): substantially reduced | nasal congestion ([2]; Example E intranasal gel 0.10 % w/v, one-fifth of a mL as drops into each nostril): substantially reduced
